Measurements reported in patent publication US10189796B2, “[4-(1,3,3-trimethyl-2-oxo-3,4-dihydro-1H-quinoxalin-7-yl)phenoxy]ethyloxy compound or salt thereof” (SANTEN PHARMACEUTICAL CO., LTD., priority 2015, dated 2019).

Legend:
[1] = test system: TNFα production in rat whole blood; assay: TNFα production inhibitory action evaluation test (LPS stimulation ex vivo, ELISA); assay type: cell-based; conditions: 20 hours, 200 μM test compound solution 10 μL/well, DEX treated group = 100, read-out: TNFα production inhibitory ratio (% DEX)
Procedure: In order to evaluate an action of the present compound as a GR agonist, a TNFα production inhibitory action in rat whole blood after LPS stimulation ex vivo was investigated. For the measurement of the TNFα production amount, the ELISA method (manufactured by R&D Systems, Cat No. RTA00) was used, and a procedure was carried out according to the protocol attached thereto. Hereinafter, the specific method will be described.
LPS solution: LPS was dissolved in PBS(−) and diluted with RPMI 1640 to prepare an LPS solution with a concentration of 2 μg/mL.
After the test compound was dissolved in dimethylsulfoxide, the solution was diluted with PBS(−) to prepare 200 μM of a test compound solution. In addition, DEX was similarly dissolved to prepare 200 μM of a DEX solution, and a TNFα production inhibitory ratio of DEX was measured, and used for calculation of Efficacy (% DEX).
• 1) Blood was collected from 3 to 5 rats using an injection syringe treated with heparin from the abdominal aorta under isoflurane anesthesia. The rats confirmed death after lething the whole blood. • 2) The blood of 3 to 5 rats pooled in a 96-well round bottom culture plate was seeded at each 180 μL/well. • 3) It was cultured (37° C., 5% CO2, 95% air) for about 1 hour. • 4) The test compound solution was added each 10 μL/well, and cultured for 1 hour. • 5) LPS solution was added each 10 μL/well. • 6) The sample in which 2% dimethylsulfoxide-containing PBS(−) was added with each 10 μL/well in place of each test compound solution, and RPMI 1640 was added with each 10 μL/well in place of the LPS solution was made a negative control. • 7) The sample in which 2% dimethylsulfoxide-containing PBS(−) was added with each 10 μL/well in place of each test compound solution was made a positive control. • 8) After completion of 20 hours cultivation, the supernatant was recovered and the amount of TNFα released in the supernatant was measured by using an ELISA Kit. • 9) The TNFα production inhibitory ratio was calculated according to the following calculation formula. (Calculation of TNFα Production Inhibitory Ratio)
TNFα production inhibitory ratio (%) was calculated according to the following formula. TNFα production inhibitory ratio (%)=100×{1−(TNFα production amount of each test compound solution−average value of TNFα production amount of negative control group)/(average value of TNFα production amount of positive control group−average value of TNFα production amount of negative control group)}(%)
(§1) Further, a TNFα production inhibitory ratio (Efficacy (% DEX)) when the DEX treated group was made 100 was calculated. Efficacy (% DEX)=100×{(average value of TNFα production inhibitory ratio of each test compound solution)/(average value of TNFα production inhibitory ratio of DEX treated group)}(%)

[2] = molecular target: Recombinant human GR (Homo sapiens (Human), UniProt P04150); assay: GR competitive binding assay by fluorescence polarization; conditions: 20 μM test compound solution, 10 μL/well; 2 hours; DEX positive control; read-out: GR binding rate (%)
Procedure: In order to evaluate a binding activity of the present compound to GR, a GR receptor competitor assay was carried out by a fluorescence polarization method. In the assay, a GR competitive binding assay kit (manufactured by Invitrogen, cat No. P2816) was used for the assay, and a procedure was carried out according to the protocol attached to the kit. Hereinafter, the specific method will be described.
GR screening buffer: A buffer containing 10 mM of potassium phosphate (pH 7.4), 20 mM of sodium molybdate (Na2MoO4), 0.1 mM of ethylene diamine tetraacetic acid (EDTA), 5 mM of dithiothreitol (DTT), 0.1 mM of stabilizing peptide and 2% of dimethylsulfoxide was prepared.
4×GS1 solution: Fluormone™ GS1, which is a fluorescent glucocorticoid ligand, was diluted with GR screening buffer, whereby a 4 nM solution was prepared.
4×GR solution: Recombinant human GR was diluted with GR screening buffer, whereby a 16 nM solution was prepared.
After a test compound was dissolved in dimethylsulfoxide, the resulting solution was diluted with GR screening buffer, whereby a 20 μM test compound solution was prepared. In addition, DEX was similarly dissolved, whereby a DEX solution with a […] concentration was prepared, and the solution was diluted with GR screening buffer, whereby a 2 mM DEX solution was prepared. DEX was used as positive control.
• 1) The test compound solution was added in an amount of 10 μL into each well of a 384-well plate. • 2) 4×GS1 solution and 4×GR solution were added in an amount of 5 μL into each well, respectively. • 3) GR screening buffer was added in an amount of 10 μL/well into each well in place of the test compound solution, which was made a negative control. • 4) A 2 mM of DEX was added in an amount of 10 μL/well into each well in place of the test compound solution, which was made a positive control. • 5) The plate was incubated in a dark place at room temperature for 2 hours, and fluorescence polarization of each well was measured. (Calculation Equation of GR Binding Ratio)
A GR binding ratio (%) was calculated from the following equation. GR binding ratio (%)=100×{1−(fluorescence polarization of test compound solution−average value of fluorescence polarization of positive control solution)/(average value of fluorescence polarization of negative control solution−average value of fluorescence polarization of positive control solution)}

[3] = test system: IL-6 production in human corneal epithelium cell line (HCE-T); assay: IL-6 production inhibitory action evaluation test (LPS stimulation, HTRF); assay type: cell-based; conditions: 4 hours
Procedure: To evaluate the action of the present compounds as a GR agonist, IL-6 production inhibitory action in human corneal epithelial cell line after LPS stimulation was examined The IL-6 production was measured by using the HTRF method (Cat No. 62IL6PEB manufactured by Cisbio Bioassays, Inc.) according to the attached protocol. The specific method is described below.
LPS solution: After dissolving LPS in PBS(−), the resulting solution was diluted with a culture solution, whereby an LPS solution with a 1 μg/mL concentration was prepared.
After dissolving the test compound in dimethylsulfoxide, the solution was diluted with a 10% FBS-DMEM/Ham's F12 medium, whereby a 100 μM of the test compound solution was prepared. […] In addition, DEX was similarly dissolved, whereby a 100 μM concentration of the DEX solution was prepared, and an IL-6 production inhibitory ratio of DEX was measured, and used for calculation of Efficacy (% DEX).
Used cells: human corneal epithelium cell line (HCE-T) (RIKEN, Institute of Physical and Chemical Research)
The cells continued to subculture according to this method were used for the test. (Test Method and Measurement Method) • 1) The subcultured HCE-T was recovered and the cells were seeded at 2.0×10^4 cells/0.1 mL/well in a 96-well flat bottom culture plate. • 2) After culturing overnight, medium the medium was removed and each 80 μL/well of 10%
FBS-DMEM/Ham's F12 medium was added. • 3) Test compound solution was added with each 10 μL/well. • 4) LPS solution was added with each 10 μL/well. • 5) The sample to which 1% dimethylsulfoxide-containing 10% FBS-DMEM/Ham's F12 medium was added with each 10 μL/well in place of each test compound solution, and 10% FBS-DMEM/Ham's F12 medium was added in place of the LPS solution was made a negative control. • 6) The sample in which 1% dimethylsulfoxide-containing 10% FBS-DMEM/Ham's F12 medium was added with each 10 μL/well in place of each test compound solution was made a positive control. • 7) After completion of 4 hours cultivation, the supernatant was recovered and the amount of IL-6 released in the supernatant was measured by using an HTRF human IL-6 Kit. • 8) The IL-6 production inhibitory ratio was calculated according to the following calculation formula. (Calculation of IL-6 Production Inhibitory Ratio)
The IL-6 production inhibitory ratio (%) was calculated by the following formula. IL-6 production inhibitory ratio (%)=100×{1−(IL-6 produced amount of each test compound solution−average value of IL-6 produced amount of negative control group)/(average value of IL-6 produced amount of positive control group−average value of IL-6 produced amount of negative control group)}(%)
as §1, with “the IL-6” for “a TNFα”, “IL-6” for “TNFα”
In addition, IC50 was calculated according to a conventional method. IDBS XLfit4 was used for the calculation.

[4] = test system: VEGF-induced retinal elevated vascular permeability model of rabbits; assay: Retinal vascular permeability model evaluation test; assay type: in vivo, rabbit; conditions: 2% 50 μL/base agent A, intravitreal once; 4 weeks before VEGF induction
Procedure: In order to evaluate the inhibitory effect of the present compounds on VEGF-induced retinal vascular permeability, the inhibitory effect of the present compound on retinal vascular permeability in a VEGF-induced retinal elevated vascular permeability model of rabbits was evaluated. Incidentally, this effect was evaluated by calculating a leaked amount of the fluorescent dye of the base agent administered group (non-induced group), a leaked amount of the fluorescent dye of the base agent administered group (control group) and a leaked amount of the fluorescent dye of the test compound administered group.
To the test compound was added 0.01% Polysorbate 80/0.5% sodium carboxymethyl cellulose/PBS (hereinafter referred to as “base agent A”.), whereby 2% (W/V) or 8% (W/V) of the test compound suspension was prepared. Or else, to the test compound was added PEG400 (hereinafter referred to as “base agent B”.), whereby 6% (W/W) of the test compound solution was prepared.
VEGF solution: humanVEGF165 was dissolved in PBS to prepare 50 μg/mL of VEGF solution.
• 1) A mixed solution (1 mL/kg) of 5% ketamine hydrochloride injection solution and 2% xylazine hydrochloride injection solution with the ratio of 7:1 was intramuscularly administered to rabbits (Dutch male rabbits), and the rabbits were anesthetized. • 2) Tropicamide-phenylephrine hydrochloride ophthalmic solution (trade name: Midlin P) was eye dropped to maintain pupillary mydriasis, and then, the VEGF solution was intravitreally administered. Incidentally, PBS was intravitreally administered to the base agent administration group (non-induced group). • 3) Fluorescein was intravenously administered 2 days after intravitreal administration of VEGF. Two hours after the intravenous administration of fluorescein, an amount of the leaked fluorescent dye in the vitreous body was measured by using a fluorophotometer. (Test Method) • 1) One week before or 4 weeks before VEGF-induction, 50 μL of the test compound suspension (prepared by the base agent A) was intravitreally administered once, or 5 μL of the test compound solution (prepared by the base agent B) was intravitreally administered once. Incidentally, in the base agent administered group (non-induced group) and the base agent administered group (control group), the base agent A was used in place of the test compound suspension, or the base agent B was used in place of the test compound solution. • 2) Inhibition ratio of elevated retinal vascular permeability was calculated according to the following calculation formula. (Calculation Formula) Inhibitory ratio (%) on elevated retinal vascular permeability of the test compound administered group=100×{1−(average value of a leaked fluorescent dye amount in the test compound administered group−average value of a leaked fluorescent dye amount in the base agent administered group (non-induced group))/(average value of a leaked fluorescent dye amount in the base agent administered group (control group)−average value of a leaked fluorescent dye amount of the base agent administered group (non-induced group))}

Sequence of Recombinant human GR (P04150 whole entry): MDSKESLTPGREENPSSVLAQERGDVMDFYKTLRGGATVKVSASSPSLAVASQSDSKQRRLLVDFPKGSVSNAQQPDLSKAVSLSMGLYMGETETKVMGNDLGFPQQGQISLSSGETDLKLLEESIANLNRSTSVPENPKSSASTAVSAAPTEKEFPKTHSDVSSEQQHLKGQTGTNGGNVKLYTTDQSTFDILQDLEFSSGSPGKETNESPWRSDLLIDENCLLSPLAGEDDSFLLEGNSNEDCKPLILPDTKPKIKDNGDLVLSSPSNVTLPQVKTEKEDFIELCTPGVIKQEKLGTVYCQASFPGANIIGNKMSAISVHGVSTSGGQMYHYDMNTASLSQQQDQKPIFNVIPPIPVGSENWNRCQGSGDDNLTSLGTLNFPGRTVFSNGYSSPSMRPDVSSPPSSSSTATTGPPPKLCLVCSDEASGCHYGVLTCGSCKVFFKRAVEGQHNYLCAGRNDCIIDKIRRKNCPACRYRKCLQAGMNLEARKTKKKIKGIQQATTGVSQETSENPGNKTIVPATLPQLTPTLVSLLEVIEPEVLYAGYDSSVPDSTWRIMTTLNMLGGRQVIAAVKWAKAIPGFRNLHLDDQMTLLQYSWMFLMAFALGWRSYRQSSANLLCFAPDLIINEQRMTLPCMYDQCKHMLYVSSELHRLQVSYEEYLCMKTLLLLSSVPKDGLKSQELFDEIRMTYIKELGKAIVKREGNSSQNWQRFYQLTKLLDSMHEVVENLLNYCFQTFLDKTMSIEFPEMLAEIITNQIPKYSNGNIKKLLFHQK

| Compound | inhibition at 10 µM [2] | Emax [1] | Emax ([3]; 100 μM test compound solution 10 μL/well, DEX treated group = 100, read-out: IL-6 production inhibitory ratio (% DEX)) | IC50 ([3]; IL-6 production inhibition) | Inhibitory ratio (%) on elevated vascular permeability [4] |
| --- | --- | --- | --- | --- | --- |
| COc1cc(OCC(O)C(F)(F)F)ccc1-c1ccc2c(c1COc1cc(F)ccc1C)N(C)C(=O)C(C)(C)N2 (stereo not drawn) [Compound 1-2, 8-(5-Fluoro-2-methylphenoxymethyl)-7-[4-(2-hydroxy-3,3,3-trifluoro-propyl)oxy-2-methoxyphenyl]-1,3,3-trimethyl-3,4-dihydro-1H-quinoxalin-2-one] | – | 94% | – | – | – |
| CC[C@@H](O)COc1ccc(-c2ccc3c(c2COc2cc(F)ccc2C)N(C)C(=O)C(C)(C)N3)c(OC)c1 [Compound 1-4, (R)-8-(5-fluoro-2-methylphenoxymethyl)-7-[4-(2-hydroxybutyl)oxy-2-methoxyphenyl]-1,3,3-trimethyl-3,4-dihydro-1H-quinoxalin-2-one] | > 99% | 94% | 92% | 34 nM | – |
| COc1cc(OC[C@H](C)OC(=O)C2CCCN2)ccc1-c1ccc2c(c1COc1cc(F)ccc1C)N(C)C(=O)C(C)(C)N2.Cl (stereo partly drawn) [Compound 11-2, 8-(5-Fluoro-2-methylphenoxymethyl)-7-[4-[(2S)-[(2S)-pyrrolidylcarbonyloxy]-propyl]oxy-2-methoxyphenyl]-1,3,3-trimethyl-3,4-dihydro-1H-quinoxalin-2-one hydrochloride] | – | – | – | – | 92% |

More lines, main results first:

| inhibition at 10 µM [2] | Compound | Emax [1] | Emax ([3]; 100 μM test compound solution 10 μL/well, DEX treated group = 100, read-out: IL-6 production inhibitory ratio (% DEX)) | IC50 ([3]; IL-6 production inhibition) | Inhibitory ratio (%) on elevated vascular permeability [4] |
| --- | --- | --- | --- | --- | --- |
| 95% | COc1cc(OC[C@@H](C)O)ccc1-c1ccc2c(c1COc1cc(F)ccc1C)N(C)C(=O)C(C)(C)N2 [Compound 1-3, (R)-8-(5-fluoro-2-methylphenoxymethyl)-7-[4-(2-hydroxypropyl)oxy-2-methoxy-phenyl]-1,3,3-trimethyl-3,4-dihydro-1H-quinoxalin-2-one] | 93% | – | – | – |
| 91% | COc1cc(OC[C@H](O)CCO)ccc1-c1ccc2c(c1COc1cc(F)ccc1C)N(C)C(=O)C(C)(C)N2 [Compound 2-2, (R)-7-[4-(2,4-dihydroxybutyl)oxy-2-methoxyphenyl]-8-(5-fluoro-2-methyl-phenoxymethyl)-1,3,3-trimethyl-3,4-dihydro-1H-quinoxalin-2-one] | 95% | – | – | – |
| > 99% | COc1cc(OCC(O)CC(=O)N2CCOCC2)ccc1-c1ccc2c(c1COc1cc(F)ccc1C)N(C)C(=O)C(C)(C)N2 (stereo not drawn) [Compound 10-2, 8-(5-fluoro-2-methylphenoxymethyl)-7-[4-[3-(N-morpholino)carbonyl-2-hydroxypropyl]oxy-2-methoxyphenyl]-1,3,3-trimethyl-3,4-dihydro-1H-quinoxalin-2-one] | > 99% | – | – | – |
